Responders and ED50 data for 14 molecules are collected here from US5428038A, “Benzopyranones, a method for producing them and uses therefor” (Dr. Willmar Schwabe GmbH & Co., priority 1991, dated 1995).

This test relates to NMDA-induced death. Kind of test: NMDA test (25 mg/kg i.v.), prevention of NMDA-induced death (neuroprotective efficacy). Format: in vivo, male NMRI mice. Conditions: Mus musculus, po, NMDA 25 mg/kg i.v.; for responders at 100 mg/kg: 100 mg/kg p.o. 1 h before test; for ED50: 1 h, dose protecting 50% of animals against NMDA-induced death one hour after application; for responders at 5 mg/kg: 5 mg/kg p.o. 1 h before test; for responders at 25 mg/kg: 25 mg/kg p.o. 1 h before test. The method, then: In order to determine the neuroprotective and anticonvulsive activity of the compounds in accordance with the invention of the general formula I, two slightly different methods were employed as follows: […]
1. In order to determine the neuroprotective efficacy NMDA at a rate of 25 mg/kg/10 ml was administered intravenously to male NMRI mice with a body weight of 20 to 25 g. As a consequence of this application the animals suffer clonic and partly tonic convulsions, which lead to death. As a criterion for the efficacy of the investigated compounds prevention of death is used.
All animals used in the investigations had free access to food and water prior to the experiments. The test and reference substances were all administered as a suspension in 0.2% agar or water, partly by the intermediary of solution promoters such as for instance PEG-400, perorally using an esophageal probe. Control animals received the same volumes of the solvent with optional solution promoters. One hour after the application of the substance NMDA was administered intravenously and the animals observed for the occurrence of convulsions.
In table 1 the results of the tests (NMDA 25 mg i.v.) performed in accordance with method 1 are compiled with dosages of 5-100 mg of the compounds in accordance with the invention per kg of body weight as compared with known NMDA-antagonists. As a percentage efficacy the percentage of surviving animals is used.
The determination of the ED50 values was performed in accordance with the method described in Lichtfield and Wilcoxon, J. Pharmacol. exp. Therapeut. 96, 99 (1949) in each case with 4 to 5 groups of 10 animals per dosage rate.

Setting [1] is: read-out: Protective action (percentage of surviving animals).

As for `COc1cc2oc(=O)c3c(c2cc1OCCCN1CCC(C(O)(c2ccc(F)cc2)c2ccc(F)cc2)CC1)CCC3` [Example 65, 8-{3-[4-(bis(4-fluorophenyl)hydroxymethyl)-1-piperidinyl]propoxy}-2,3-dihydro-7-methoxy-cyclopenta[c][1]benzopyran-4(1H)-one], the responders at 100 mg/kg under setting [1] is 12.5%.

By ED50 is commonly meant the dose at which the effect has come halfway, by size or by number of responders. Turning to `COc1cccc(N2CCN(CCCOc3cc4c5c(c(=O)oc4cc3OC)CCC5)CC2)c1` [Example 55, 2,3-dihydro-7-methoxy-8-{3-[4-(3-methoxyphenyl)-1-piperazinyl]propoxy}cyclopenta[c][1]benzopyran-4(1H)-one], the median effective dose (ED50) stood at 1.1 mg/kg. Also, under setting [1], the responders at 5 mg/kg is 100%.

For the molecule `COc1cc2oc(=O)c3c(c2cc1OCCN1CCN(c2ccccc2)CC1)CCC3` [Example 44, 2,3-dihydro-7-methoxy-8-[2-(4-phenyl-1-piperazinyl)ethoxy]cyclopenta[c][1]benzopyran-4(1H)-one], the ED50 turned out to be 4.8 mg/kg. Moreover, the responders at 25 mg/kg under setting [1] worked out at 87.5%.

`COc1cc2oc(=O)c3c(c2cc1OCCCN1CCN(c2ccccc2Cl)CC1)CCC3` [Example 58, 8-{3-[4-(2-chlorophenyl)-1-piperazinyl]propoxy}-2,3-dihydro-7-methoxy-cyclopenta[c][1]benzopyran-4(1H)-one]: the 50% effect level (ED50) was put at a dose of 1.8 mg/kg. Moreover, under setting [1], the responders at 5 mg/kg is 100%.

As for `COc1cc2oc(=O)ccc2cc1OCC(O)CN1CCC(c2ccccc2)CC1` (racemic) [Example 22, (±)-6-[2-hydroxy-3-(4-phenyl-1-piperidinyl)-propoxy]-7-methoxy-2H-1-benzopyran-2-one], the responders at 100 mg/kg under setting [1] turned out to be 37.5%.

On to `COc1cc2oc(=O)ccc2cc1OCC(O)CN1CCN(c2cccc(C(F)(F)F)c2)CC1` (racemic) [Example 20, (±)-6-{2-hydroxy-3-[4-(3-trifluoromethylphenyl)-1-piperazinyl]propoxy}-7-methoxy-2H-1-benzopyran-2-one], for which, where the note is “50 mg/kg p.o. 1 h before test, read-out: Protective action (percentage of surviving animals)”, the responders at 50 mg/kg worked out at 87.5%.

`CCCc1cc(=O)oc2cc(OC)c(OCCCN3CCN(c4ccccc4)CC3)cc12` [Example 33] came in with a 50% effective dose (ED50) of 4.4 mg/kg. Also, the responders at 25 mg/kg under setting [1] stood at 100%.

On to `CCCCc1c(C)c2cc(OCCCN3CCN(c4ccccc4)CC3)c(OC)cc2oc1=O` [Example 37, 3-butyl-7-methoxy-4-methyl-6-[3-(4-phenyl-1-piperazinyl)propoxy]-2H-1-benzopyran-2-one], for which the responders at 25 mg/kg under setting [1] is 100%.

Regarding `CCOc1cc2oc(=O)ccc2cc1OCCCN1CCN(c2ccccc2)CC1` [Example 3, 7-ethoxy-6-[3-(4-phenyl-1-piperazinyl)propoxy]-2H-1-benzopyran-2-one], under setting [1], the responders at 5 mg/kg was 62.5%.

As to `COc1cc2oc(=O)c3c(c2cc1OCCCN1CCN(c2ccccn2)CC1)CCC3` [Example 62, 2,3-dihydro-7-methoxy-8-{3-[4-(2-pyridinyl)-1-piperazinyl]propoxy}cyclopenta[c][1]benzopyran-4(1H)-one], the responders at 25 mg/kg under setting [1] was found to be 87.5%.

`COc1cc2oc(=O)c3c(c2cc1OCCCN1CCN(c2ccccc2C)CC1)CCC3` [Example 59, 2,3-dihydro-7-methoxy-8-{3-[4-(2-methylphenyl)-1-piperazinyl]propoxy}cyclopenta[c][1]benzopyran-4(1H)-one]: the 50% effective dose (ED50) is 1.1 mg/kg. Under setting [1], the responders at 5 mg/kg stood at 100%.

With `COc1cc2oc(=O)c3c(c2cc1OCCCN1CCC(Cc2ccccc2)CC1)CCC3` [Example 64], the responders at 25 mg/kg under setting [1] came to 75%.

Take `COc1cc2oc(=O)ccc2cc1OCCCN1CCC(c2ccccc2)CC1` [Example 9, 7-methoxy-6-[3-(4-phenyl-1-piperidinyl)propoxy]-2H-1-benzopyran-2-one]: the responders at 25 mg/kg under setting [1] turned out to be 50%.

As for `O=c1ccc2cc(OC3CCCC3)c(OCCCN3CCN(c4ccccc4)CC3)cc2o1` [Example 5, 6-(cyclopentyloxy)-7-[3-(4-phenyl-1-piperazinyl)propoxy]-2H-1-benzopyran-2-one], the responders at 25 mg/kg under setting [1] came out at 87.5%.
